The subject of this experiment is EGFR, ERK1, ERK2, and AKT. The experiment is described as follows: Phosphorylation of signaling proteins in HT29 cells. Format: cell-based, human. As for the experimental part:
These effects were detected with as little as […] of EGCG, and within 5 minutes. Phosphorylation of EGFR, ERK1, ERK2, and AKT were suppressed in cells treated with methyl-β-cyclodextrin, which depletes plasma membrane cholesterol. […] In addition, the inhibitory effect of EGCG on phosphorylation of EGFR was not blocked by the addition of cholesterol on the growth medium. These findings provide evidence that EGCG can alter membrane domain organization in colon cancer cells ant that this is not due to cholesterol depletion. It was noted that pre-treatment of the cells with EGCG or Poly E inhibited the binding of Alexa 488-labeled EGF to the cell surface receptor EGFR.

For the substance “methyl-β-cyclodextrin [reference compound]”, the “phosphorylation of EGFR, ERK1, ERK2, and AKT” value is “suppressed”.

These data come from patent US20070054868A1, “Synergistic polyphenol compounds, compositions thereof, and uses thereof” (The Trustees of Columbia University in the City of New York, priority 2005, published 2007).
